Measurements: patent US20190330224A1, “ACC INHIBITORS AND USES THEREOF” (Gilead Apollo, LLC, priority 2015, published 2019)
≈ marks a conversion by molar mass, not a printed value.

Tests used:
[1] = system: C. albicans ATCC 90028; experiment: Anti-Fungal Activity Assay (broth microtiter MIC), C. albicans; type: cell-based, Candida albicans; conditions: Candida albicans, ATCC90028, 48 h, 3 replicates; MIC recorded at 48 h; read-out: MIC C. albicans ATCC 90028
Protocol: (§1) Compounds of the present invention were evaluated in an Anti-Fungal Activity Assay. An exemplary procedure for the assay, which measures the susceptibility of various Candida species to anti-fungal compounds, follows. Compounds to be tested (including fluconazole and amphotericin B) were dissolved in DMSO to obtain a solution having a concentration of 1 mg/mL. […] All species were grown from frozen stock by directly plating on to freshly prepared Sabouraud Dextrose agar (BD, Difco) and incubated overnight in ambient air at 35° C. for 24 h. A direct suspension was prepared in RPMI 1640+MOPS (Lonza, Biowhittaker) by taking individual colonies from the overnight cultures using sterile swabs soaked in sterile saline. The concentration of the suspension was determined using pre-determined standard curves. […] Broth microtiter MIC challenge plates were prepared following CLSI guidelines (M27-A3, Vol. 28 No. 14). The original CLSI guidelines focused on reading Candida MICs after 48 h of incubation. As reading after only 24 h offers a clear advantage of patient care, QC limits are being established for all drugs at 24 h. That being said there are no known interpretive breakpoints for amphotericin B at 24 h and the current fluconazole interpretive breakpoints are based on a 48 h reading. The MIC breakpoints for the test compounds were recorded at 48 h, and for the soraphen the 24 h time-point was added. All MIC determinations were achieved by visually comparing the growth found in the antibiotic challenged wells to that of the growth control.

[2] = biological target: Human ACC2 (Homo sapiens, UniProt O00763); experiment: In vitro ACC2 inhibition assay (ADP-Glo), human ACC2; type: biochemical; conditions: 5 nM ACC2, 20 μM ATP, 20 μM acetyl-CoA
[3] = system: C. krusei ATCC 6258; experiment: Anti-Fungal Activity Assay (broth microtiter MIC), C. krusei; type: cell-based, Candida krusei; conditions: Pichia kudriavzevii, ATCC6258, 48 h, 3 replicates; MIC recorded at 48 h; read-out: MIC C. krusei ATCC 6258
Protocol: as §1

[4] = system: C. parapsilosis ATCC 22019; experiment: Anti-Fungal Activity Assay (broth microtiter MIC), C. parapsilosis; type: cell-based, Candida parapsilosis; conditions: Lodderomyces parapsilosis, ATCC22019, 48 h, 3 replicates; MIC recorded at 48 h; read-out: MIC C. parapsilosis ATCC 22019
Protocol: as §1

Human ACC2, sequence (O00763 whole entry): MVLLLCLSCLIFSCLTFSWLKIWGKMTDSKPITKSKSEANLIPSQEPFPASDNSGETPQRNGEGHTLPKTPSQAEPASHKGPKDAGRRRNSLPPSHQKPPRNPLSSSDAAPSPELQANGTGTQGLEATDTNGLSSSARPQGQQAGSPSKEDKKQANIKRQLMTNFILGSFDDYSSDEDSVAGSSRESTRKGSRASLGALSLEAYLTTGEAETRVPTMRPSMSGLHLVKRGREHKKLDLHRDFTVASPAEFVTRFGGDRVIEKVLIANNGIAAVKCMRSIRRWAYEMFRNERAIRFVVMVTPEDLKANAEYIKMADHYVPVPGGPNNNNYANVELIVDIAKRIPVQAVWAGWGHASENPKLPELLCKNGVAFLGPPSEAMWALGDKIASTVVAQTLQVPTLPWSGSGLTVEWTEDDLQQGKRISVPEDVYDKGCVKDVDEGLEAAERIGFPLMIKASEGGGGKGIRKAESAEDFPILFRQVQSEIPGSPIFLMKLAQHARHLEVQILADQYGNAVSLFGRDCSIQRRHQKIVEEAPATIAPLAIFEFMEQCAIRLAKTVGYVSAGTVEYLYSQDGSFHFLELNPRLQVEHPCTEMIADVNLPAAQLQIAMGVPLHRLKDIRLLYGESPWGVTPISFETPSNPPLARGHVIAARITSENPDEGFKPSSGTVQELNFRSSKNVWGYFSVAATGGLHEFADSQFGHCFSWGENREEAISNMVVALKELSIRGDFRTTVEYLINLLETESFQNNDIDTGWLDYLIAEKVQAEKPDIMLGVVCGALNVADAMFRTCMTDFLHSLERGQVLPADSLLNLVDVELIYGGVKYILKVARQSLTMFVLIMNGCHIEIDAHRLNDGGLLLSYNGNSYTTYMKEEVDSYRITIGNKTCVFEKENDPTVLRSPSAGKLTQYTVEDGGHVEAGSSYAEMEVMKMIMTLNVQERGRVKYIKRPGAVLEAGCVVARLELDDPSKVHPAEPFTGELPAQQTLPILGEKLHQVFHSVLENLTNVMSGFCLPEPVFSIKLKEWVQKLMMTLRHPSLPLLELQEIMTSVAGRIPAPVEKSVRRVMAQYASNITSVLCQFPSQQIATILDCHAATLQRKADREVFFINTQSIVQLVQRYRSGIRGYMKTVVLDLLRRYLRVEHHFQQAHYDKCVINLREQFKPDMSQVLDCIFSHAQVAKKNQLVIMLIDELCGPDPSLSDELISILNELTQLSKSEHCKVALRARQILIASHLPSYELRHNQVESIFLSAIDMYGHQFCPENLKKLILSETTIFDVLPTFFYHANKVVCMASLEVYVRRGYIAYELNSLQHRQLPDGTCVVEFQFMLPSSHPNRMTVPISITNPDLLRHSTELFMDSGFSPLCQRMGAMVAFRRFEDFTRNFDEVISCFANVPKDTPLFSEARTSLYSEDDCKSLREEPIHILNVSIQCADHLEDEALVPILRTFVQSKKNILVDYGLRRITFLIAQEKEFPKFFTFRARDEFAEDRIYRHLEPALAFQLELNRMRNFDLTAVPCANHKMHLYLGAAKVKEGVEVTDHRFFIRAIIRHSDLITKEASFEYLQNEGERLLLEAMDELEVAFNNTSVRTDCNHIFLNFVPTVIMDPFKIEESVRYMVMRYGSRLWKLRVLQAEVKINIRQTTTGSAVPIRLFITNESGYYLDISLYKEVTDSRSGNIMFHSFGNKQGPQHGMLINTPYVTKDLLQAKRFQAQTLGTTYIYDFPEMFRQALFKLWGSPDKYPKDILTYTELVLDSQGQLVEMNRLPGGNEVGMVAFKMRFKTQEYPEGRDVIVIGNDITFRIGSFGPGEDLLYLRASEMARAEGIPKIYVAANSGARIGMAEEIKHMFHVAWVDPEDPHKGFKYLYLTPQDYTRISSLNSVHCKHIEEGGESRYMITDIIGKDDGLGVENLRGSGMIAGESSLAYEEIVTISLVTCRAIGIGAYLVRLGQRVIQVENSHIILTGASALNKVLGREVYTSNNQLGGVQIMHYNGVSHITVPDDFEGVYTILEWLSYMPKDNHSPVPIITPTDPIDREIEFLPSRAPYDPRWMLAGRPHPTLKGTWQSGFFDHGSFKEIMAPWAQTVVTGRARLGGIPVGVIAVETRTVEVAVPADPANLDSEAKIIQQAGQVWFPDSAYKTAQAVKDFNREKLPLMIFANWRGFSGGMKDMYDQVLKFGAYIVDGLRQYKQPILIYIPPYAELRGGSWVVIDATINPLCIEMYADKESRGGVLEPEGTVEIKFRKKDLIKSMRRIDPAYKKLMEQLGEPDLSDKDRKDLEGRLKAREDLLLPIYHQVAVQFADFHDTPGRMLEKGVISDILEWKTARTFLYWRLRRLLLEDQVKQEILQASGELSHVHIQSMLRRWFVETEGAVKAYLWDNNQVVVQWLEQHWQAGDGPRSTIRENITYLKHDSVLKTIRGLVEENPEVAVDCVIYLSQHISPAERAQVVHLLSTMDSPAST

Row | Structure (SMILES) | MIC [1] [µg/mL] | IC50 [2] [nM] | MIC [3] [µg/mL] | MIC [4] [µg/mL]
1 | COc1ccc(F)cc1[C@H](Cn1c(=O)n(C2CCCNC2=O)c(=O)c2c(C)c(-n3nccn3)sc21)OC1CCOCC1 (stereo partly drawn) [Compound I-21, 1-((R)-2-(5-fluoro-2-methoxyphenyl)-2-((tetrahydro-2H-pyran-4-yl)oxy)ethyl)-5-methyl-3-(2-oxopiperidin-3-yl)-6-(2H-1,2,3-triazol-2-yl)thieno[2,3-d]pyrimidine-2,4(1H,3H)-dione] | 0.25 to 1 (≈ 0.418 to 1.67 µM) | 2 to 10 | 0.25 to 1 (≈ 0.418 to 1.67 µM) | 1.1 to 2 (≈ 1.84 to 3.34 µM)
2 | COc1ccc(F)cc1[C@H](Cn1c(=O)n(C2CCCN(C(C)C)C2=O)c(=O)c2c(C)c(-n3nccn3)sc21)OC1CCOCC1 (stereo partly drawn) [Compound I-24] | 0.25 to 1 (≈ 0.39 to 1.56 µM) | 10 to 100 | 0.25 to 1 (≈ 0.39 to 1.56 µM) | 0.25 to 1 (≈ 0.39 to 1.56 µM)
3 | COc1ccc(F)cc1[C@H](Cn1c(=O)n([C@H]2CCNC2=O)c(=O)c2c(C)c(-n3nccn3)sc21)OC1CCOCC1 [Compound I-33, 1-((R)-2-(5-fluoro-2-methoxyphenyl)-2-((tetrahydro-2H-pyran-4-yl)oxy)ethyl)-5-methyl-3-((S)-2-oxopyrrolidin-3-yl)-6-(2H-1,2,3-triazol-2-yl)thieno[2,3-d]pyrimidine-2,4(1H,3H)-dione] | 2.1 to 4 (≈ 3.59 to 6.84 µM) | 2 to 10 | 1.1 to 2 (≈ 1.88 to 3.42 µM) | 2.1 to 4 (≈ 3.59 to 6.84 µM)
4 | COc1ccc(F)cc1[C@H](Cn1c(=O)n([C@@H]2CCCNC2=O)c(=O)c2c(C)c(-n3nccn3)sc21)OC1CCOCC1 [Compound I-38, 1-((R)-2-(5-fluoro-2-methoxyphenyl)-2-((tetrahydro-2H-pyran-4-yl)oxy)ethyl)-5-methyl-3-((R)-2-oxopiperidin-3-yl)-6-(2H-1,2,3-triazol-2-yl)thieno[2,3-d]pyrimidine-2,4(1H,3H)-dione] | 2.1 to 4 (≈ 3.51 to 6.68 µM) | 10 to 100 | 2.1 to 4 (≈ 3.51 to 6.68 µM) | 2.1 to 4 (≈ 3.51 to 6.68 µM)
5 | COc1ccccc1[C@H](Cn1c(=O)n(C2CCCNC2=O)c(=O)c2c(C)c(-c3ncco3)sc21)OC1CCOCC1 (stereo partly drawn) [Compound I-49, 1-((R)-2-(2-methoxyphenyl)-2-((tetrahydro-2H-pyran-4-yl)oxy)ethyl)-5-methyl-6-(oxazol-2-yl)-3-(2-oxopiperidin-3-yl)thieno[2,3-d]pyrimidine-2,4(1H,3H)-dione] | 1.1 to 2 (≈ 1.89 to 3.44 µM) | 10 to 100 | 2.1 to 4 (≈ 3.62 to 6.89 µM) | 2.1 to 4 (≈ 3.62 to 6.89 µM)
6 | COc1ccccc1[C@H](Cn1c(=O)n(C2CCCN(C)C2=O)c(=O)c2c(C)c(-c3ncco3)sc21)OC1CCOCC1 (stereo partly drawn) [Compound I-50, 1-((R)-2-(2-methoxyphenyl)-2-((tetrahydro-2H-pyran-4-yl)oxy)ethyl)-5-methyl-3-(1-methyl-2-oxopiperidin-3-yl)-6-(oxazol-2-yl)thieno[2,3-d]pyrimidine-2,4(1H,3H)-dione] | 2.1 to 4 (≈ 3.53 to 6.73 µM) | 10 to 100 | 2.1 to 4 (≈ 3.53 to 6.73 µM) | 2.1 to 4 (≈ 3.53 to 6.73 µM)
7 | COc1ccc(F)cc1[C@H](Cn1c(=O)n(C2CCCNC2=O)c(=O)c2c(C)c(-c3ncco3)sc21)OC1CCOCC1 (stereo partly drawn) [Compound I-51, 1-((R)-2-(5-fluoro-2-methoxyphenyl)-2-((tetrahydro-2H-pyran-4-yl)oxy)ethyl)-5-methyl-6-(oxazol-2-yl)-3-(2-oxopiperidin-3-yl)thieno[2,3-d]pyrimidine-2,4(1H,3H)-dione] | 1.1 to 2 (≈ 1.84 to 3.34 µM) | 10 to 100 | 2.1 to 4 (≈ 3.51 to 6.68 µM) | 2.1 to 4 (≈ 3.51 to 6.68 µM)

More lines, now with the values ahead:

Row | MIC [1] [µg/mL] | IC50 [2] [nM] | MIC [3] [µg/mL] | MIC [4] [µg/mL] | Structure (SMILES)
8 | 2.1 to 4 (≈ 3.43 to 6.53 µM) | 10 to 100 | 1.1 to 2 (≈ 1.8 to 3.26 µM) | 2.1 to 4 (≈ 3.43 to 6.53 µM) | COc1ccc(F)cc1[C@H](Cn1c(=O)n(C2CCCN(C)C2=O)c(=O)c2c(C)c(-c3ncco3)sc21)OC1CCOCC1 (stereo partly drawn) [Compound I-52, 1-((R)-2-(5-fluoro-2-methoxyphenyl)-2-((tetrahydro-2H-pyran-4-yl)oxy)ethyl)-5-methyl-3-(I-methyl-2-oxopiperidin-3-yl)-6-(oxazol-2-yl)thieno[2,3-d]pyrimidine-2,4(1H,3H)-dione]
9 | 2.1 to 4 (≈ 3.71 to 7.06 µM) | 2 to 10 | 2.1 to 4 (≈ 3.71 to 7.06 µM) | 2.1 to 4 (≈ 3.71 to 7.06 µM) | COc1ccccc1[C@H](Cn1c(=O)n(C2CCNC2=O)c(=O)c2c(C)c(-c3ncco3)sc21)OC1CCOCC1 (stereo partly drawn) [Compound I-56, 1-((R)-2-(2-methoxyphenyl)-2-((tetrahydro-2H-pyran-4-yl)oxy)ethyl)-5-methyl-6-(oxazol-2-yl)-3-(2-oxopyrrolidin-3-yl)thieno[2,3-d]pyrimidine-2,4(1H,3H)-dione]
10 | 1.1 to 2 (≈ 1.89 to 3.44 µM) | 10 to 100 | 1.1 to 2 (≈ 1.89 to 3.44 µM) | 2.1 to 4 (≈ 3.62 to 6.89 µM) | COc1ccccc1[C@H](Cn1c(=O)n(C2CCN(C)C2=O)c(=O)c2c(C)c(-c3ncco3)sc21)OC1CCOCC1 (stereo partly drawn) [Compound I-57, 1-((R)-2-(2-methoxyphenyl)-2-((tetrahydro-2H-pyran-4-yl)oxy)ethyl)-5-methyl-3-(1-methyl-2-oxopyrrolidin-3-yl)-6-(oxazol-2-yl)thieno[2,3-d]pyrimidine-2,4(1H,3H)-dione]
11 | 2.1 to 4 (≈ 3.59 to 6.84 µM) | 2 to 10 | 2.1 to 4 (≈ 3.59 to 6.84 µM) | 2.1 to 4 (≈ 3.59 to 6.84 µM) | COc1ccc(F)cc1[C@H](Cn1c(=O)n(C2CCNC2=O)c(=O)c2c(C)c(-c3ncco3)sc21)OC1CCOCC1 (stereo partly drawn) [Compound I-58, 1-((R)-2-(5-fluoro-2-methoxyphenyl)-2-((tetrahydro-2H-pyran-4-yl)oxy)ethyl)-5-methyl-6-(oxazol-2-yl)-3-(2-oxopyrrolidin-3-yl)thieno[2,3-d]pyrimidine-2,4(1H,3H)-dione]
12 | 1.1 to 2 (≈ 1.84 to 3.34 µM) | 2 to 10 | 0.25 to 1 (≈ 0.418 to 1.67 µM) | 2.1 to 4 (≈ 3.51 to 6.68 µM) | COc1ccc(F)cc1[C@H](Cn1c(=O)n(C2CCN(C)C2=O)c(=O)c2c(C)c(-c3ncco3)sc21)OC1CCOCC1 (stereo partly drawn) [Compound I-59, 1-((R)-2-(5-fluoro-2-methoxyphenyl)-2-((tetrahydro-2H-pyran-4-yl)oxy)ethyl)-5-methyl-3-(1-methyl-2-oxopyrrolidin-3-yl)-6-(oxazol-2-yl)thieno[2,3-d]pyrimidine-2,4(1H,3H)-dione]
13 | 2.1 to 4 (≈ 3.76 to 7.16 µM) | 10 to 100 | 2.1 to 4 (≈ 3.76 to 7.16 µM) | 2.1 to 4 (≈ 3.76 to 7.16 µM) | COc1ccc(F)cc1[C@H](Cn1c(=O)n([C@H]2CCCNC2=O)c(=O)c2c(C)c(-c3ncco3)sc21)OCCO [Compound I-62, 1-((R)-2-(5-fluoro-2-methoxyphenyl)-2-(2-hydroxy-ethoxy)ethyl)-5-methyl-6-(oxazol-2-yl)-3-((S)-2-oxopiperidin-3-yl)thieno[2,3-d]pyrimidine-2,4(1H,3H)-dione]
14 | 2.1 to 4 (≈ 3.67 to 6.99 µM) | 10 to 100 | 2.1 to 4 (≈ 3.67 to 6.99 µM) | 2.1 to 4 (≈ 3.67 to 6.99 µM) | COc1ccc(F)cc1[C@H](Cn1c(=O)n([C@H]2CCCN(C)C2=O)c(=O)c2c(C)c(-c3ncco3)sc21)OCCO [Compound I-63, 1-((R)-2-(5-fluoro-2-methoxyphenyl)-2-(2-hydroxy-ethoxy)ethyl)-5-methyl-3-((S)-1-methyl-2-oxopiperidin-3-yl)-6-(oxazol-2-yl)thieno[2,3-d]pyrimidine-2,4(1H,3H)-dione]
15 | 2.1 to 4 (≈ 3.76 to 7.16 µM) | 10 to 100 | 2.1 to 4 (≈ 3.76 to 7.16 µM) | 2.1 to 4 (≈ 3.76 to 7.16 µM) | COc1ccc(F)cc1[C@H](Cn1c(=O)n([C@@H]2CCCNC2=O)c(=O)c2c(C)c(-c3ncco3)sc21)OCCO [Compound I-64, 1-((R)-2-(5-fluoro-2-methoxyphenyl)-2-(2-hydroxy-ethoxy)ethyl)-5-methyl-6-(oxazol-2-yl)-3-((R)-2-oxopiperidin-3-yl)thieno[2,3-d]pyrimidine-2,4(1H,3H)-dione]
16 | 2.1 to 4 (≈ 3.67 to 6.99 µM) | 10 to 100 | 2.1 to 4 (≈ 3.67 to 6.99 µM) | 2.1 to 4 (≈ 3.67 to 6.99 µM) | COc1ccc(F)cc1[C@H](Cn1c(=O)n([C@@H]2CCCN(C)C2=O)c(=O)c2c(C)c(-c3ncco3)sc21)OCCO [Compound I-65, 1-((R)-2-(5-fluoro-2-methoxyphenyl)-2-(2-hydroxy-ethoxy)ethyl)-5-methyl-3-((R)-1-methyl-2-oxopiperidin-3-yl)-6-(oxazol-2-yl)thieno[2,3-d]pyrimidine-2,4(1H,3H)-dione]
17 | 2.1 to 4 (≈ 3.67 to 6.99 µM) | 10 to 100 | 2.1 to 4 (≈ 3.67 to 6.99 µM) | 2.1 to 4 (≈ 3.67 to 6.99 µM) | COc1ccc(F)cc1[C@H](Cn1c(=O)n([C@]2(C)CCC(=O)NC2)c(=O)c2c(C)c(-n3nccn3)sc21)OCCO [Compound I-133, 1-((R)-2-(5-fluoro-2-methoxyphenyl)-2-(2-hydroxy-ethoxy)ethyl)-5-methyl-3-((R)-3-methyl-6-oxopiperidin-3-yl)-6-(2H-1,2,3-triazol-2-yl)thieno[2,3-d]pyrimidine-2,4(1H,3H)-dione]
18 | 2.1 to 4 (≈ 3.67 to 6.99 µM) | 10 to 100 | 2.1 to 4 (≈ 3.67 to 6.99 µM) | 2.1 to 4 (≈ 3.67 to 6.99 µM) | COc1ccc(F)cc1[C@H](Cn1c(=O)n([C@@]2(C)CCC(=O)NC2)c(=O)c2c(C)c(-n3nccn3)sc21)OCCO [Compound I-135, 1-((R)-2-(5-fluoro-2-methoxyphenyl)-2-(2-hydroxy-ethoxy)ethyl)-5-methyl-3-((S)-3-methyl-6-oxopiperidin-3-yl)-6-(2H-1,2,3-triazol-2-yl)thieno[2,3-d]pyrimidine-2,4(1H,3H)-dione]
